Columns and labels:
Format in all cases: cell-based
[1] = tested on: FAS (fatty acid synthase); assay: Effect of saponins of the extract on FAS expression in 3T3-L1 cells; settings: FIG. 1 and FIG. 2
Text: (§1) The effect of the saponins of the extract according to the present disclosure on the activity of AMPK, ACC and FAS in 3T3-L1 cells is shown in FIG. 1 and FIG. 2. AMPK is an enzyme involved in fatty acid oxidation, inhibition of adipocyte differentiation, etc. It is involved in inhibition of fatty acid biosynthesis and fatty acid degradation by phosphorylating (inactivating) ACC through AMPK phosphorylation (p-AMPK). FAS (fatty acid synthase) plays a role of promoting fatty acid synthesis.

AMPK = assay: Effect of saponins of the extract on activity of AMPK in 3T3-L1 cells (p-AMPK); settings: FIG. 1 and FIG. 2
Text: as §1

ACC = assay: Effect of saponins of the extract on activity of ACC in 3T3-L1 cells (p-ACC); settings: FIG. 1 and FIG. 2
Text: as §1

fat accumulation = assay: Effect of saponins of the fermented extract on fat accumulation (FIG. 3); settings: as compared to a control group
Text: The effect of the saponins of the extract of fermented Gynostemma pentaphyllum according to the present disclosure on fat accumulation was investigated.

Compound	expression of FAS (fatty acid synthase) [1]	activation of p-AMPK (AMPK)	activation of p-ACC (ACC)	inhibition of fat accumulation (fat accumulation)
CC(C)=CCC[C@](C)(O)[C@H]1CC[C@]2(C)[C@@H]1[C@H](O)C[C@@H]1[C@@]3(C)CC[C@H](O[C@@H]4O[C@H](CO)[C@@H](O)[C@H](O)[C@H]4O[C@@H]4O[C@H](CO)[C@@H](O)[C@H](O)[C@H]4O)C(C)(C)[C@@H]3CC[C@]12C [ginsenoside Rg3]	inhibiting the expression of FAS	activated p-AMPK and p-ACC in a concentration-dependent manner	activated p-AMPK and p-ACC in a concentration-dependent manner	exhibited an effect of inhibiting fat accumulation
CC(C)=CCC[C@@](C)(O)[C@H]1CC[C@]2(C)[C@@H]1[C@H](O)C[C@@H]1[C@@]3(C)C[C@@H](O)[C@H](O[C@@H]4O[C@H](CO)[C@@H](O)[C@H](O)[C@H]4O[C@@H]4O[C@H](CO)[C@@H](O)[C@H](O)[C@H]4O)C(C)(C)[C@@H]3CC[C@]12C [gypenoside LI]	inhibiting the expression of FAS	activated p-AMPK and p-ACC in a concentration-dependent manner	activated p-AMPK and p-ACC in a concentration-dependent manner	exhibited an effect of inhibiting fat accumulation
CC(C)=CCC[C@](C)(O)[C@H]1CC[C@]2(C)[C@@H]1[C@H](O)C[C@@H]1[C@@]3(C)C[C@@H](O)[C@H](O[C@@H]4O[C@H](CO)[C@@H](O)[C@H](O)[C@H]4O[C@@H]4O[C@H](CO)[C@@H](O)[C@H](O)[C@H]4O)C(C)(C)[C@@H]3CC[C@]12C [gypenoside L]	–	–	–	exhibited an effect of inhibiting fat accumulation

— patent US20190000905A1, “Gynostemma pentaphyllum fermented extracts comprising Saponins as an active functional food ingredient and preparation method thereof” (BTC Co., Ltd., priority 2017, published 2019)
